Test [1] addresses T1, ATP-binding cassette sub-family C member 2 (Rattus norvegicus, UniProt Q63120). Description: TP_TRANSPORTER: inhibition of E217betaG uptake in canalicular membrane vesicles of rat liver. It counts as functional, cell membranes, Canalicular membrane vesicle.
The target of the next test is T2, Bile salt export pump (Rattus norvegicus, UniProt O70127).
T2 sequence (O70127 whole entry): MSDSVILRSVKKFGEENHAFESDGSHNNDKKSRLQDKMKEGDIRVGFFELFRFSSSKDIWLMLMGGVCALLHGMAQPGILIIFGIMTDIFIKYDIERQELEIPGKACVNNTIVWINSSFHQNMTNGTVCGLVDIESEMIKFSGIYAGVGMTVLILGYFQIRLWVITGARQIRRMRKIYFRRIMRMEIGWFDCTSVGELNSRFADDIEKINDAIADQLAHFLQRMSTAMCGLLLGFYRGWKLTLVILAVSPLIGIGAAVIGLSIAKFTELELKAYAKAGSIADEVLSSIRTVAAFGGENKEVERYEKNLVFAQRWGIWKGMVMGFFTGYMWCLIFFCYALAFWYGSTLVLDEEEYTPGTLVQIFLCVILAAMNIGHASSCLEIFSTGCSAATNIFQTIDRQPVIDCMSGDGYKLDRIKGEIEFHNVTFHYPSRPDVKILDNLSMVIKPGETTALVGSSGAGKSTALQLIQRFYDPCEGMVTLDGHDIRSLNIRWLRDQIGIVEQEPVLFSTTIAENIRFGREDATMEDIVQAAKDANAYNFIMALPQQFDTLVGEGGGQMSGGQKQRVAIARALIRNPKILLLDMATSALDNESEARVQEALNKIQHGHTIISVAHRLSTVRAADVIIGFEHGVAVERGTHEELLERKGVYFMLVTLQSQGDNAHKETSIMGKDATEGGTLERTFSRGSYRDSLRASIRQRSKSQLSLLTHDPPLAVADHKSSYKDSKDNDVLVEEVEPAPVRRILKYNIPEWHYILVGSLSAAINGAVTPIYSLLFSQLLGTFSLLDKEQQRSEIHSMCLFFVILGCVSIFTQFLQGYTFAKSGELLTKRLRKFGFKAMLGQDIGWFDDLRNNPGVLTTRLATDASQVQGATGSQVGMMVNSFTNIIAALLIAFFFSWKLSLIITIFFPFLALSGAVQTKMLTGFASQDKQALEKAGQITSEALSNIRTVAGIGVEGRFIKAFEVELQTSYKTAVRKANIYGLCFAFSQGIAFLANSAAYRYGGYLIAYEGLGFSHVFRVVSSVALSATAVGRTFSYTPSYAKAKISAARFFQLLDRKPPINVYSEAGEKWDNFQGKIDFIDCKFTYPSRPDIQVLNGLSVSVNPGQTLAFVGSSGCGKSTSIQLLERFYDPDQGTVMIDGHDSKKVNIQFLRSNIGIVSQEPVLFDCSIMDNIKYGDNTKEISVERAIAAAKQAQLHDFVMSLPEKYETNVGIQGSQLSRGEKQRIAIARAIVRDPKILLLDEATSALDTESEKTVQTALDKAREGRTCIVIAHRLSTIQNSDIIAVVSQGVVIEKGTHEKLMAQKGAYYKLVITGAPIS
Put plainly: TP_TRANSPORTER: inhibition of Taurocholate uptake in canalicular membrane vesicles of rat liver. It counts as functional, cell membranes, Canalicular membrane vesicle.

Test [2] concerns the target T1, ATP-binding cassette sub-family C member 2. Description: TP_TRANSPORTER: inhibition of LTC4 uptake in canalicular membrane vesicles of rat liver. It counts as functional, cell membranes, Canalicular membrane vesicle.
For test [3] the target is unchanged. Put plainly: TP_TRANSPORTER: inhibition of LTC4 uptake in Mrp2-expressing HEK cells. It counts as functional, cell-based, HEK293.

Molecules are shown by their SMILES.

T1 sequence (Q63120 whole entry): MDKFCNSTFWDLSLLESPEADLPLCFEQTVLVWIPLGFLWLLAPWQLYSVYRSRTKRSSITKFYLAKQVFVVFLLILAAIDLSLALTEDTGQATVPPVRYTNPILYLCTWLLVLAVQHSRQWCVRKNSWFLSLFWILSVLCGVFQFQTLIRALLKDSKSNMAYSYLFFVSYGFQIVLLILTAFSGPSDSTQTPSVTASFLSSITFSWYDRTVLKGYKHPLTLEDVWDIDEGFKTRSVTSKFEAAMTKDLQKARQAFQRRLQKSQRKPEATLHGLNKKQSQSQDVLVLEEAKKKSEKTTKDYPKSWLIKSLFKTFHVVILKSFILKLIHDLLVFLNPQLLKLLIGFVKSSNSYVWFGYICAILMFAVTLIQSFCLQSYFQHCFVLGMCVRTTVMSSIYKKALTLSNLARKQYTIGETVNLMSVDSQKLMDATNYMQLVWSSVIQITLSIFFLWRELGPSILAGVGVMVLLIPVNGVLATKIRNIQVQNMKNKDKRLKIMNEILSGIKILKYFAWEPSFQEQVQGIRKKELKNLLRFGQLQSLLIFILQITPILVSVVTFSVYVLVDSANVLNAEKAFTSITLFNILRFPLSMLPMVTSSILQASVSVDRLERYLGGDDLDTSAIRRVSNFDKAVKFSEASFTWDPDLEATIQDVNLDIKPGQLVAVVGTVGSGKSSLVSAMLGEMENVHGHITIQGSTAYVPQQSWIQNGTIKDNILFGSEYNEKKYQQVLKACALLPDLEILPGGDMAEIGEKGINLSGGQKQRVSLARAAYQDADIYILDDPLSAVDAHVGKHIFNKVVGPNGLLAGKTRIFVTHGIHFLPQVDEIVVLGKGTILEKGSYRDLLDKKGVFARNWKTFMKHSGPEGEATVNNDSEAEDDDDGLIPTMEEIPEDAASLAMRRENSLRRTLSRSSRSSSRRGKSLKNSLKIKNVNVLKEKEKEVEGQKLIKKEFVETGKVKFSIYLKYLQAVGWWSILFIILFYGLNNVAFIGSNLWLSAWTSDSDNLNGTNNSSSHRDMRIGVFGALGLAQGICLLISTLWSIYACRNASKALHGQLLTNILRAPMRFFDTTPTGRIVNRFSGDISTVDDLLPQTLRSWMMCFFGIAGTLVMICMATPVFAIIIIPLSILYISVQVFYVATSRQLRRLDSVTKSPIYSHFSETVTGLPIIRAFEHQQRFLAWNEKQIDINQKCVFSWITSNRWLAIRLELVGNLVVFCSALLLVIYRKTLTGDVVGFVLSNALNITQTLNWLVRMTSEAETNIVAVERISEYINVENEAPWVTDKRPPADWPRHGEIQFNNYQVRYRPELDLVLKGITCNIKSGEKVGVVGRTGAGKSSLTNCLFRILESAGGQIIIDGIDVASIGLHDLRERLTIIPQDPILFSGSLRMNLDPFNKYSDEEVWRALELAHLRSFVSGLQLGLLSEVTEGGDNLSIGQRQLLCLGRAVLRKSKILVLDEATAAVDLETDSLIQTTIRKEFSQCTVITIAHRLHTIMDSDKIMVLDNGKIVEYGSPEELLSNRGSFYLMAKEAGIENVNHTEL

The term Ki denotes the equilibrium dissociation constant of an inhibitor or competing ligand from its target. Consider `CC(=O)O[C@H]1C[C@@]2(C)[C@@H](C[C@@H](O)[C@H]3[C@@]4(C)CC[C@@H](O)[C@@H](C)[C@@H]4CC[C@@]32C)/C1=C(\CCC=C(C)C)C(=O)O` [FUSIDIC ACID], for which the Ki came out at 7.6 µM in test [1], 2.2 µM on Bile salt export pump, 5.5 µM in test [2] and 13 µM in test [3].

The values above are taken from ChEMBL document CHEMBL2074061, “Inhibition of transport across the hepatocyte canalicular membrane by the antibiotic fusidate” (Biochem Pharmacol, 2002).
